Results reported in patent US8030335B2, “Use of liver X receptor agonists” (Laboratoires Fournier S.A., priority 2005, dated 2011).

Columns and labels:
[1] = system: male Zucker Diabetic Fatty fa/fa (ZDF) rat; test: Plasma glucose in ZDF rats during and after 3 weeks of oral treatment; format: in vivo
Excerpt: The male Zucker Diabetic Fatty fa/fa (ZDF) rat is a model of Type II diabetes. The rats are insulin resistant but normoglycemic from birth and they develop diabetes from about week 7 to week 10 of age. During the transitional period, the animals go through a state of impaired glucose tolerance. Although the animals are hyperinsulinemic before diabetes onset and during the early stages of diabetes, they later lose glucose-stimulated insulin secretion and finally become almost completely insulinopenic. Male ZDF fa/fa and ZDF fa+ rats were obtained from Genetic Models (Indianapolis, Ind.), at the age of 6 weeks and used in the experiments at 12 weeks of age, after 3 weeks of oral treatment with vehicle or GW3965 (10 mg/kg). Compounds were given once daily (at 17 h) via oral gavage. At the time of their use, the ZDF fa/fa rats weighed 310-350 g, whereas the age-matched ZDF fa+ rats weighed 245-285 g. ZDF fa+ and ZDF fa/fa animals had free access to diabetogenic chow (Purina 5008). Animals were housed 5 per cage in a temperature and humidity-controlled room with a 12/12-h light-dark cycle. Blood samples were taken 16 h after compound administration via the tail vein and measured on a Konelab 300 (Labsystem) clinical chemistry analyzer. At the beginning of the study, glycemia was similar in vehicle- and GW3965-treated ZDF rats.

[2] = system: isolated pancreatic islets; test: Apoptosis by measurement of DNA fragments (Cell Death Detection ELISA) in isolated islets; format: in vivo, rat; settings: islets of ZDF rats, 10 mg/kg oral, overnight culture in RPMI; vehicle 43.1±9.2%, fa+ 19.9±6.2%
Description: Rat pancreatic islets were prepared by collagenase digestion and density gradient purification. The enzyme collagenase type XI (Sigma Chemical, St. Louis, Mo.) was used for digestion of the pancreas. After an overnight fast, animals were deeply anesthetized and killed. Then, the pancreatic duct was cannulated, and 20 ml of the digestion solution at 37° C. (collagenase 30 mg/ml dissolved in 20 ml Hanks' balanced salt solution [HBSS]) (Sigma Chemical, St. Louis, Mo.) was slowly injected to distend the tissue. After distension, the pancreas was placed into a 20-ml glass beaker containing 5 ml of the digestion solution at 37° C. that was set into a shaking water bath at 37° C. for 8 minutes. After centrifugation at 633 g for 1 min at 4° C., the supernatant was removed and the islets were washed three times with HBSS by centrifugation at 633 g for 1 min at 4° C. For the purification procedure, the islets were resuspended in 4 ml of 80% Histopaque 1.077 (Sigma) and 4 ml HBSS. […] The apoptosis of islet cells was assessed by the Cell Death Detection enzyme-linked immunosorbent assay (ELISA) plus Kit from Roche, according to the procedures recommended by the manufacturer and applied to rat islet experiment. […] At the end of the 5-min incubation, absorbance of samples was read spectrophotometrically at 405 nm. The results were expressed as a percent of internal standard (nucleosomal particles). […]

[3] = system: Glut2 mRNA; test: Real-time quantitative RT-PCR of Glut2 in isolated islets of treated ZDF rats; format: in vivo, rat; settings: normalized to 18S rRNA, vehicle ZDF 0.27, fa+ 0.40±0.22
Description: Pancreatic and duodenal homeobox gene 1, Pdx1 (Genbank: NM_022852) and facilitated glucose transporter, member 2, Glut2 (Genbank: NM_012879) gene expression were measured by real time quantitative RT-PCR. Total RNAs from fresh isolated rat pancreatic islets were prepared using Rneasy 96 Kit according to the manufacturer's protocol (Qiagen, France), treated with Dnase I to remove contaminating DNA (Stratagene, France), and quantified using the iScript cDNA Synthesis and iQ SYBR Green Supermix kits (Biorad, france). Real-time quantitative RT-PCR was performed using the iCycler Detection System instrument and software (Bio-Rad). As the predicted size of the amplified cDNAs and the Tm values for the primers were similar, uniform amplification conditions were applied (ie. annealing at 60° C.). Specificity of amplified products was monitored by performing melting curves at the end of each amplification. Expression levels were quantified (total RNA units) by generating a six-point serial standard curve. RNA samples were normalized for comparison by determining 18S rRNA levels. In this example, the mRNA expression of PDX1 and Glut2 was determined. As previously described, PDX1 and Glut2 are markers of the regeneration of beta cells. […] PDX1 and Glut2 mRNA expression was increased in islets isolated from GW3965-compared to vehicle-treated ZDF rats. […]

O=C(O)Cc1cccc(OCCCN(Cc2cccc(C(F)(F)F)c2Cl)CC(c2ccccc2)c2ccccc2)c1 [GW3965]
plasma glucose (glycemia) during treatment ([1]; 10 mg/kg oral once daily, day 6 to day 21, vs vehicle): significantly prevented this rise and maintained glycemia at low level
glycemia and HbA1c ([1]; after 21 days of treatment): significant decrease
glycemia after the end of treatment ([1]; day 44, no treatment from day 21, previously 10 mg/kg oral for 3 weeks): still significantly reduced
apoptosis, DNA fragments as percent of internal standard [2]: 34.0±7.5%
Glut2 mRNA expression [3]: 0.55±0.23
